In patent US20110045100A1, “Antimalarial Quinolines and Methods of Use Thereof” (GEORGETOWN UNIVERSITY, priority 2008, published 2011):

What was measured:
[1] = test system: CQS (HB3, GCO3) and CQR (Dd2, FCB) strains of P. falciparum; assay: SYBR Green I antiplasmodial assay, several CQS and CQR strains; assay type: cell-based, Plasmodium falciparum; settings: Plasmodium falciparum; read-out: IC50 vs. CQR parasites
Text: Bennett T. N.; Paguio, M.; Gligorijevic, B.; Seudieu, C.; Kosar, A. D.; Davidson, E.; Roepe, P. D. Novel, rapid, and inexpensive cell-based quantification of antimalarial drug efficacy. Antimicrob. Agents Chemother. 2004, 48, 1807-1810; Smilkstein, M.; Sriwilaijaroen, N.; Kelly, J. X.; Wilairat, P.; Riscoe, M. Simple and inexpensive fluorescence-based technique for high-throughput antimalarial drug screening. Antimicrob. Agents Chemother. 2004, 48, 1803-1806; and Johnson, J. D.; Dennull, R. A.; Gerena, L.; Lopez-Sanchez, M.; Roncal, N. E.; Waters, N.C. Assessment and continued validation of the malaria SYBR green I-based fluorescence assay for use in malaria drug screening. Antimicrob. Agents Chemother. 2007, 51, 1926-1933. […] Drake, N. L.; Creech, H. J.; Garman, J. A.; Haywood, S. T.; Peck, R. M.; van Hook, J. O.; Walton, E. Synthetic antimalrials. The preparation of certain 4-aminoquinolines. J. Am. Chem. Soc. […] Trans. R. Soc. Trop. Med. Hyg. […] J. Parasitol. 1983, 69, 97-105. The selectivity index provides a quantitative measure of the antimalarial activity against CQR strains relative to that against sensitive strains and thus indicates promising drug discovery leads. […] This can be combined with the introduction of a third basic amino function which should further favor accumulation of the drug within the acidic food vacuole of the parasite.
Bennett T. N.; Paguio, M.; Gligorijevic, B.; Seudieu, C.; Kosar, A. D.; Davidson, E.; Roepe, P. D. Novel, rapid, and inexpensive cell-based quantification of antimalarial drug efficacy. Antimicrob. Agents Chemother. 2004, 48, 1807-1810; Smilkstein, M.; Sriwilaijaroen, N.; Kelly, J. X.; Wilairat, P.; Riscoe, M. Simple and inexpensive fluorescence-based technique for high-throughput antimalarial drug screening. Antimicrob. Agents Chemother. 2004, 48, 1803-1806; and Johnson, J. D.; Dennull, R. A.; Gerena, L.; Lopez-Sanchez, M.; Roncal, N. E.; Waters, N.C. Assessment and continued validation of the malaria SYBR green I-based fluorescence assay for use in malaria drug screening. Antimicrob. Agents Chemother. 2007, 51, 1926-1933.
Drug activities were assessed and IC50 were quantified essentially as described previously. Delarue, S.; Girault, S.; Maes, L.; Debreu-Fontaine, M. A.; Labaeid, M.; Grellier, P.; Sergheraert, C. Synthesis and in vitro and in vivo antimalarial activity of new 4-anilinoquinolines. J. Med. Chem. 2001, 44, 2827-2833; and O'Neill, P. M.; Willock, D. J.; Hawley, S. R.; Bray, P. G.; Storr, R. C.; Ward, S. A.; Park, B. K. Synthesis, antimalarial activity, and molecular modeling of tebuquine analogues. J. Med. Chem. 1997, 40, 437-448.

monomeric heme = assay: Heme affinity measurement, monomeric heme; assay type: binding; settings: acidic 40% DMSO
Description: To test whether binding to Hz precursors is also altered for the 4S and 4O derivatives, binding constants were measured as previously described for both μ-oxo dimeric and monomeric heme (FIG. 25). […] J. Am. Chem. Soc. 1988, 110, 4391-4395; Egan, T. J.; Mavuso, W. W.; Ross, D. C.; Marques, H. M. Thermodynamic factors controlling the interaction of quinoline antimalarial drugs with ferriprotoporphyrin IX. J. Inorg. Biochem. 1997, 68, 137-145; and Egan, T. J.; Ncokazi, K. K. Effects of solvent composition and ionic strength on the interaction of quinoline antimalarials with ferriprotoporphyrin IX. J. Inorg. Biochem. 2004, 98, 144-152. Due to the instability of monomeric heme in aqueous solution, the affinity to monomer measured by conventional absorbance experiments can only be estimated using 40% DMSO in water as solvent. Egan, T. J.; Ncokazi, K. K. Effects of solvent composition and ionic strength on the interaction of quinoline antimalarials with ferriprotoporphyrin IX. J. Inorg. Biochem. 2004, 98, 144-152. At appropriately acidic solution pH (≦5.0) FPIX heme is primarily monomeric, whereas at pH 7, appreciable dimer is formed. As shown (FIG. 25), CQ and compounds 88, 93, and 98 all have poor affinity for monomeric heme in acidic 40% DMSO. To further test if CQ interacts with monomeric heme, T1 measurements of the CQ protons were made with samples containing 10 mM CQ and 2 mM hemin chloride in 40% DMSO at pH 5.0. Although the lines are broadened in this solution due to paramagnetic susceptibility, the measured T1's indicate only weak paramagnetic relaxation. For example, the measured T1 for CQ proton 1 in this sample is 0.70 s, whereas at pH 7.0 the T1 for the same proton is 0.039 s.
To measure affinity for monomeric heme, 1.2 mM stock solutions of hemin (sodium salt from Sigma-Aldrich) were prepared in DMSO and stored as […] aliquots. 4.8 μM working solutions were prepared in 40% DMSO/phosphate buffer (fresh stocks prepared daily). Stock solutions of CQ and CQ analogues (diphosphate or dihydrochloride salts) were prepared in 40% DMSO/phosphate buffer and used for the titration experiments (all drugs dilutions were prepared in the same buffer).
1.5 mL cuvettes containing freshly prepared samples of 4.8 μM heme were titrated with increasing concentrations (0-50 μM) of drug. Following each addition, the sample was mixed and heme absorbance then recorded at 402 nm. Control experiments were performed by titrating 4.8 μM heme with similar volumes of solvent and no drug present. […] The absorbance peak analysis was done using Microsoft excel and Ka were extracted from the ΔAbs402 plots via Scatchard analysis using Microsoft Excel and Sigma plot 9.0.1 software.

[2] = pKa determination by acid/base titration; assay type: physicochemical; settings: distilled water; measured; read-out: quinolyl N pKa
Description: SPARC pKa calculator is an online tool developed at the University of Georgia by S. W. Karickhoff, L. A. Carreira and S. H. Hilal. Experimental pKa were determined using an Accumet AB15 pH meter and a calomel electrode. 10 mM solutions of the drugs (as dibasic salts) were made in distilled H2O and titrated at room temperature (23.0±2.0° C.) using 0.1 M NaOH. Titration plots were generated and pKa's extracted via inflection points from the second derivative plots; (Δ^2pH/ΔV^2) vs. V, where V represents the volume of the titrant added and ΔV is the volume increment.

CCN(CC)CCCCOc1ccnc2cc(Cl)ccc12 [compound 93, O-(7-Chloro-4-quinolyl)-4-(N,N-diethylamino)butanol]
IC50 [1]: ~1000 nM
affinity for monomeric heme (monomeric heme): poor affinity
pKa [2]: 4.5
